From US8445533B2, “Andrographolide derivatives to treat viral infections” (Cornell Research Foundation, Inc., priority 2004, dated 2013)
pEC50, pIC50: −log10 of the molar value. Converted amounts (≈) assume the structure as drawn. Where two headings read alike, the source gives them in different places.

Legend:
[1] = test system: HCV replicon subgenomic 1b Strain N; assay: HCV replicon SEAP reporter assay, subgenomic 1b Strain N; format: cell-based, hepatitis C virus; conditions: 4 days
Procedure: (§1) HCV replicon—SEAP (secreted alkaline phosphatase) cell lines have been described previously. Low passage cell stocks of cell lines stored frozen (−160° C.) were used in the assays. Serial dilutions of test compounds were made from initial stocks and each concentration plated in 96-well plates. Low passage HCV replicon-bearing cells were then trypsinized, counted and seeded into the wells. The plates were incubated at 37° C. in a CO2 incubator for 4 days. The culture supernatant was then removed from each well and heat inactivated for 30 min at 65° C. SEAP activity was measured and EC50 values calculated by comparing SEAP present in drug-treated and untreated wells. Cytotoxicity produced by compounds during screening was evaluated by MTT assay at the end of the incubation period.
(§2) Growth medium from each well was aspirated prior to the addition of lysis solution followed by vigorous pipetting. Each lysate was processed using DNase I treatment. Total RNA was eluted into orgainic carbon-free water and converted into cDNA enzymatically.

[2] = test system: HCV replicon subgenomic 1a; assay: HCV replicon SEAP reporter assay, subgenomic 1a; format: cell-based, hepatitis C virus; conditions: 4 days
Procedure: as §1, §2

[3] = test system: HCV replicon-bearing cells (subgenomic 1b Strain N); assay: MTT cytotoxicity in HCV replicon cells, subgenomic 1b Strain N; format: cell-based, human; conditions: 4 days
Procedure: as §1

[4] = test system: HCV replicon-bearing cells (subgenomic 1a); assay: MTT cytotoxicity in HCV replicon cells, subgenomic 1a; format: cell-based, human; conditions: 4 days
Procedure: as §1

tumor cell lines = conditions: cited from earlier work
KB = conditions: cited from earlier work
[5] = test system: P388 lymphocytic leukemia; conditions: cited from earlier work
isolated rat hepatocytes = conditions: ex vivo isolated rat hepatocytes; cited from earlier work
proprotein convertase-1 = conditions: cited from earlier work
proprotein convertase-7 = conditions: cited from earlier work
funin = funin (Homo sapiens, UniProt P09958); conditions: cited from earlier work
Sequence of funin (P09958 108-794): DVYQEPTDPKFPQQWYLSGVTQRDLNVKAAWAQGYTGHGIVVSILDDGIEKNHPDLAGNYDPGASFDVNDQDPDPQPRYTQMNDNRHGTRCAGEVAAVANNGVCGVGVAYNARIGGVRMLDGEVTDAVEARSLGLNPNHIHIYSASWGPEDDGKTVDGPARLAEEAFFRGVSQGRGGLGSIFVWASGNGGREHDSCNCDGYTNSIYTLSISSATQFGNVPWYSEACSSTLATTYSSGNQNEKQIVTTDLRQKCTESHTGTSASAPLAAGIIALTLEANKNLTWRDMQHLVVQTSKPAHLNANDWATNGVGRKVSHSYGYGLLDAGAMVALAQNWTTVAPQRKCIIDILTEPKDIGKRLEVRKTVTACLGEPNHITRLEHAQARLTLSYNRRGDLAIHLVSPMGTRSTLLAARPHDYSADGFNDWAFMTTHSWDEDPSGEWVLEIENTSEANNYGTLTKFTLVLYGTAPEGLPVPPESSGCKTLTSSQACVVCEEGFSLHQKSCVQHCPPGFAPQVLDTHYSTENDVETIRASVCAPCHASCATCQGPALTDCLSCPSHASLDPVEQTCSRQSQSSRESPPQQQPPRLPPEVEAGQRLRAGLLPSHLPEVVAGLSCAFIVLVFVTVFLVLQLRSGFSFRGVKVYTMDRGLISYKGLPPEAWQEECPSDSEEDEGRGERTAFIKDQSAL

in vitro = conditions: woodchuck
Excerpt: (§3) Woodchuck primary hepatocyte cultures and hepatic cell lines were inoculated with a cytopathogenic isolate of BVDV.

[6] = test system: cytopathogenic isolate of BVDV; assay: BVDV viral yield assay in woodchuck primary hepatocytes
Excerpt: as §3

[7] = test system: cytopathogenic isolate of BVDV; assay: BVDV antiviral assay in woodchuck hepatic cell line WCH-8
Excerpt: as §3

HIV-1 (IIIB) = conditions: Chang et al. 1991; cited from earlier work
cpBVDV isolate NADL = assay: BVDV antiviral assay in NCL bovine uterine cell line (viral-induced cell killing, viral yield); conditions: Example 2B
Procedure: Derivatives of andrographolide were tested in an in vitro assay which measures the antiviral potential against a cytopathogenic isolate of BVDV in a permissive bovine uterine cell line.
The capacity to measure the effectiveness of compounds to reduce BVDV replication in vitro provides a system for preclinical assessment of potential drugs for treatment of viral infection and for analyzing possible mechanisms of action.
Cell lines were incubated in a humid atmosphere of 5% CO2 at 37° C. Cells were passaged by dissociation of the monolayer with a solution of trypsin-EDTA (Life Technologies), diluted in culture medium, and split 1:5 to new culture flasks.
A method to measure visible cell numbers involved staining with methylene blue (Sigma, St. Louis, Mo.) and reading the absorbance of the stain in solution after elution from the cells. […] The methylene blue staining solution was removed from the cultures and the culture plates were rinsed in several volumes of H^2O. The culture plates were allowed to air dry; this was followed by elution of the methylene blue stain from the fixed cells by incubation at controlled room temperature in a solution of PBS/50% ethanol and 1% acetic acid for 1 hour, with agitation. The absorbance of the methylene blue dye in solution was measured by an ELISA plate reader (Model EL311; Bio-Tek Instruments, Inc., Winooski, Vt.) at 630 nm. In all experiments described, calculation of cell numbers for each experimental data point was expressed as the average of three wells per experimental treatment (dilution, titer, or antiviral concentration).
The NCL cell line was grown to confluence and passaged to 96 well microtiter plates (Microtest™ 96; Becton Dickinson Labware, Franklin Lakes, N.J.), at a density of 2×10^4 cells/well (0.34 cm^2) and incubated for 1 hour to allow cell attachment. After attachment, the cells of one-half of each microtiter plate were inoculated with a cpBVDV stock diluted to yield a multiplicity of infection (m.o.i.) of 0.01 TCID50 and incubated for 3-6 hours to allow viral attachment and penetration. Following this incubation period, the inoculum was removed and replaced with fresh growth medium.
Three quarters of both cpBVDV infected and uninfected cells were grown in the presence of antiviral compound. The remaining quarter of the microassay plate served as positive (cpVDV infected) and negative (uninfected) control wells. The medium was changed daily and cell killing was measured by the methylene blue assay 3 days post-infection with BVDV.
The culture medium was collected on day 3 post-infection and the reduction in viral yield after antiviral treatment was determined. Supernatant collected from experimental wells was serially diluted ten-fold and used to infect newly prepared NCL cells. the end-point titer, the last dilution at which complete cell killing was evident, was determined in a similar 96 well format using the methylene blue assay for cell killing 5 days after infection.
Cell killing due either to viral infection or to drug cytotoxicity was calculated for each experimental data point and plotted. Regression analysis (curve fitting) was performed with SigmaPlot4.0 (Jandel Sci, San Rafael, Calif.) using the Regression Wizard library of equations which best fit the collected data.

uninfected NCL cells = assay: Cytotoxicity toward uninfected NCL cells (methylene blue assay); format: cell-based, bovine; conditions: Example 2B
Procedure: A method to measure visible cell numbers involved staining with methylene blue (Sigma, St. Louis, Mo.) and reading the absorbance of the stain in solution after elution from the cells. […] The methylene blue staining solution was removed from the cultures and the culture plates were rinsed in several volumes of H^2O. […] The absorbance of the methylene blue dye in solution was measured by an ELISA plate reader (Model EL311; Bio-Tek Instruments, Inc., Winooski, Vt.) at 630 nm. In all experiments described, calculation of cell numbers for each experimental data point was expressed as the average of three wells per experimental treatment (dilution, titer, or antiviral concentration).
Three quarters of both cpBVDV infected and uninfected cells were grown in the presence of antiviral compound. […] The medium was changed daily and cell killing was measured by the methylene blue assay 3 days post-infection with BVDV.
Cell killing due either to viral infection or to drug cytotoxicity was calculated for each experimental data point and plotted. […]

WCH-8 cells = assay: Cytotoxicity in WCH-8 cells
Excerpt: as §3

[8] = test system: woodchuck primary hepatocytes; assay: Cytotoxicity in woodchuck primary hepatocytes
Excerpt: as §3

## C[C@@]1(O)[C@H](O)[C@@H](CO)O[C@H]1n1ccc(N)nc1=O [2′-MeC, B-D-2′-methyl-cytidine]
[1]
  pEC50: 4.60
[2]
  pEC50: 4.21
[3]
  pIC50: < 4.00
[4]
  pIC50: < 4.00

## C=C1CCC2[C@](C)(CC[C@@H](O)[C@@]2(C)CO)C1/C=C/C1=CCOC1=O (some centres unmarked) [14-deoxy-11,12-didehydroandrographolide]
Tumor cell lines
  cytotoxic activity: no cytotoxic activity

## C=C1CC[C@@H]2[C@](C)(CO)[C@H](O)CC[C@@]2(C)[C@@H]1C/C=C1/C(=O)OC[C@H]1O [Andrographolide]
KB
  cytotoxic activity: significant cytotoxic activity
[5]
  cytotoxic activity: significant cytotoxic activity
Isolated rat hepatocytes
  protective activity against paracetamol-induced toxicity: protective activity
Proprotein convertase-1
  enzyme inhibition: relatively little enzyme inhibition
Proprotein convertase-7
  enzyme inhibition: relatively little enzyme inhibition
funin
  enzyme inhibition: relatively little enzyme inhibition

## C=C1CC[C@@H]2[C@](C)(CO[C@@H]3O[C@H](CO)[C@@H](O)[C@H](O)[C@H]3O)CCC[C@@]2(C)[C@@H]1CCC1=CCOC1=O [neoandrographolide]
Tumor cell lines; tumor cell lines
  cytotoxic activity: no cytotoxic activity

## NC(=O)c1ncn([C@@H]2O[C@H](CO)[C@@H](O)[C@H]2O)n1 [ribavirin, reference compound]
In vitro
  CC50: 0.35 µg/mL (≈ 1.43 µM)
[6]
  tEC90: 2.9 µg/mL
[7]; Bovine viral diarrhea virus isolates and strains, in Marmota monax, read-out: ckEC50
  EC50: 0.27 µg/mL (≈ 1.11 µM)

## dehydroandrographolide succinic acid monoester [DASM]
HIV-1 (IIIB)
  minimal concentration inhibitory to HIV-1 (IIIB): 1.6 to 3.1 pg/mL

## interferon-α
cpBVDV isolate NADL
  concentration range of reduction in viral-induced cell killing: 0.1 to 1000 ng/mL
  maximal reduction in viral-induced cell killing: 80%
  reduction in viral yields: 2 logs
cpBVDV isolate NADL; bovine uterine cell line
  S.I. (CC50/EC90): 6667
  ckEC50: 0.0074 ng/mL
  tEC90: 0.15 ng/mL
cpBVDV isolate NADL; bovine uterine cell line, listed as IFN-α
  tEC90: 150 ng/mL
Uninfected NCL cells; bovine uterine cell line
  CC50: ≧1000 ng/ml
Uninfected NCL cells; over the range tested
  cytotoxicity, result in words: did not exhibit cytotoxicity over the range tested
WCH-8 cells
  CC50: ≧1000 ng/ml
WCH-8 cells; up to a dose of 1000 ng/ml
  cytotoxicity, result in words: No cytotoxicity was observed
[8]
  CC50: ≧1000 ng/ml
[8]; over the range tested
  cytotoxicity, result in words: no cytotoxicity was observed over the range tested
[6]
  tEC90: 0.825 µg/mL
[7]; WCH-8 cells
  ckEC50: 288 ng/mL
  tEC90: 64 ng/mL
